How the values were obtained:
Type in all cases: cell-based
[1] = system: histamine release and signaling pathways (gene networks); assay: Gene network enrichment analysis of cat cell lines treated with lipoic acid; conditions: four cat cell lines treated with lipoic acid
Description: (§1) The gene expression data from four cat cell lines treated with lipoic acid was analyzed.

[2] = system: GAB2 (GRB2-associated-binding protein 2); assay: Gene expression in four cat cell lines treated with or without lipoic acid (paired t test, GeneGo enrichment); conditions: Table 4; four cat cell lines with vs without lipoic acid; p<0.05
Description: as §1

[3] = system: REL (C-Rel proto-oncogene protein); assay: Gene expression in four cat cell lines treated with or without lipoic acid; conditions: Table 5; four cat cell lines with vs without lipoic acid; p<0.05
Description: as §1

[4] = system: MAPK1 (Mitogen-activated protein kinase 1); assay: as above; conditions: four cat cell lines with vs without lipoic acid, p<0.05
Description: as §1

[5] = system: NOS3 (Nitric oxide synthase, endothelial); assay: as above; conditions: Table 5; four cat cell lines with vs without lipoic acid; p<0.05
Description: as §1

[6] = system: PNPLA8 (Calcium-independent phospholipase A2-gamma); assay: as above; conditions: Table 5; four cat cell lines with vs without lipoic acid; p<0.05
Description: as §1

[7] = system: ADCY2 (Adenylate cyclase type 2); assay: as above; conditions: Table 5; four cat cell lines with vs without lipoic acid; p<0.05
Description: as §1

[8] = system: PLA2G2F (Group IIFA2 secretory phospholipase precursor); assay: as above; conditions: Table 5; four cat cell lines with vs without lipoic acid; p<0.05
Description: as §1

[9] = system: LTC4S (Leukotriene C4 synthase); assay: as above; conditions: Table 4; four cat cell lines with vs without lipoic acid; p<0.05
Description: as §1

[10] = system: PRKAR1A (cAMP-dependent protein kinase type I-alpha regulatory subunit); assay: as above; conditions: Table 5; four cat cell lines with vs without lipoic acid; p<0.05
Description: as §1

[11] = system: RELA (Transcription factor p65); assay: as above; conditions: Table 5; four cat cell lines with vs without lipoic acid; p<0.05
Description: as §1

[12] = system: VCAM1 (Vascular cell adhesion protein 1 precursor); assay: as above; conditions: Table 5; four cat cell lines with vs without lipoic acid; p<0.05
Description: as §1

[13] = system: MAP2K1 (Dual specificity mitogen-activated protein kinase 1); assay: as above; conditions: Table 4; four cat cell lines with vs without lipoic acid; p<0.05
Description: as §1

[14] = system: ADCY7 (Adenylate cyclase type 7); assay: as above; conditions: Table 5; four cat cell lines with vs without lipoic acid; p<0.05
Description: as §1

[15] = system: TNF (Tumor necrosis factor precursor); assay: as above; conditions: Table 5; four cat cell lines with vs without lipoic acid; p<0.05
Description: as §1

Structure (SMILES): O=C(O)CCCCC1CCSS1 (stereo not drawn) [lipoic acid, alpha-lipoic acid]
- Regulation of key genes in histamine and IgE signaling networks [1]: down regulated
- Signal (GAB2 gene expression change) [2]: −0.8668
- Signal (REL gene expression change) [3]: −0.4264
- Signal (MAPK1 gene expression change) ([4]; Table 4): −0.3117
- Signal (MAPK1 gene expression change) ([4]; Table 5): −0.3117
- Signal (NOS3 gene expression change) [5]: −0.5503
- Signal (PNPLA8 gene expression change) [6]: −0.2652
- Signal (ADCY2 gene expression change) [7]: 0.3925
- Signal (PLA2G2F gene expression change) [8]: 1.061
- Signal (LTC4S gene expression change) [9]: −0.4586
- Signal (PRKAR1A gene expression change) [10]: −0.184
- Signal (RELA gene expression change) [11]: −0.429
- Signal (VCAM1 gene expression change) [12]: −0.7819|
- Signal (MAP2K1 gene expression change) [13]: −0.1574
- Signal (ADCY7 gene expression change) [14]: 0.3988
- Signal (TNF gene expression change) [15]: 0.1797

Reference: patent publication US9844533B2, “Antioxidant-containing food composition for use in inhibiting histamine pathways in companion animals” (Hill's Pet Nutrition, Inc., priority 2008, dated 2017)
